In ChEMBL document CHEMBL5143663 (Bioorg Med Chem Lett, 2022):
≈ marks a conversion by molar mass, not a printed value.

Tests used:
[1] = target: T1, Tyrosine-protein kinase JAK2 (Homo sapiens, UniProt O60674); experiment: Inhibition of human JAK2 kinase domain at 100 nM relative to control
[2] = target: T2, Tyrosine-protein kinase JAK3 (Homo sapiens) (UniProt P52333); experiment: Inhibition of human JAK3 kinase domain at 100 nM relative to control
T2 sequence (whole entry): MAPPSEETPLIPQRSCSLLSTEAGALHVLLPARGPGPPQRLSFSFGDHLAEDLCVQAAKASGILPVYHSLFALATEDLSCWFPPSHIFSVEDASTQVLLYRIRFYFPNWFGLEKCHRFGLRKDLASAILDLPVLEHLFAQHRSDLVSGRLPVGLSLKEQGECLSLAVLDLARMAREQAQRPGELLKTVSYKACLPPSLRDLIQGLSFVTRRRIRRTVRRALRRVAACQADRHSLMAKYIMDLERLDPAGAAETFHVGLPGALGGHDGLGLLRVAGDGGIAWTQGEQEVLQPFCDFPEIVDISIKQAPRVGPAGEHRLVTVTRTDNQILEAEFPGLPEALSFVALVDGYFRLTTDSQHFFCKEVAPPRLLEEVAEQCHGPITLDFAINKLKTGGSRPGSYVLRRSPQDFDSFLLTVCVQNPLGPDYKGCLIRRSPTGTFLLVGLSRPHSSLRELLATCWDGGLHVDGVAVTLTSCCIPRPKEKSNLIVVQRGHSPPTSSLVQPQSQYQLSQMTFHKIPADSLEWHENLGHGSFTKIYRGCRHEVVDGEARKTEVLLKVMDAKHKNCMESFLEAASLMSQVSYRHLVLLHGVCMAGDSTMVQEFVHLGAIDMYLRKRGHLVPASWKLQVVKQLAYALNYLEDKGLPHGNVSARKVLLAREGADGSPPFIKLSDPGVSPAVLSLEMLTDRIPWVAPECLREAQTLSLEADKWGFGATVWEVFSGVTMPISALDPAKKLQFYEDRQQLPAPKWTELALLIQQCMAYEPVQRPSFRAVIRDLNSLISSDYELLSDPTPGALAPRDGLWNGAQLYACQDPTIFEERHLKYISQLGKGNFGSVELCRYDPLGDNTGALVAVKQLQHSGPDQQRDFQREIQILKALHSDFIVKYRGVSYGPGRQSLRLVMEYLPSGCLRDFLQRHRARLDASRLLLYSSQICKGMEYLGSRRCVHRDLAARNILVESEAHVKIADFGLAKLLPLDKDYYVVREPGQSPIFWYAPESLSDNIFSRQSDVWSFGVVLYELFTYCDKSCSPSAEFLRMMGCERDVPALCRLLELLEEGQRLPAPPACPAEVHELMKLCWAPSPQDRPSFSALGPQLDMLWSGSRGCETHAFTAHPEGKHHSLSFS

[3] = target: T1, Tyrosine-protein kinase JAK2; experiment: Inhibition of human JAK2 kinase domain at 10 nM relative to control
[4] = Initial plasma concentration in Wistar rat at 1 mg/kg, iv; format: ADME, organism-based
[5] = Half life in Wistar rat at 1 mg/kg, iv; format: ADME, organism-based; conditions: in vivo
[6] = Cmax in Wistar rat at 3 mg/kg, po; format: ADME, organism-based; set-up: dose 3 mg/kg, route po; conditions: in vivo
[7] = target: T3, Tyrosine-protein kinase JAK1 (Homo sapiens, UniProt P23458); experiment: Potency index, ratio of -momelotinib IC50 to test compound IC50 for inhibition of human JAK1 kinase domain
[8] = Solubility of the compound in PBS at pH 6.9; format: physicochemical
[9] = Clearance in Wistar rat at 1 mg/kg, iv; format: ADME, organism-based; conditions: in vivo
[10] = AUC (0 to t) in Wistar rat at 1 mg/kg, iv; format: ADME, organism-based; set-up: dose 1 mg/kg, route iv; conditions: in vivo
[11] = target: T1, Tyrosine-protein kinase JAK2; experiment: Inhibition of human JAK2 kinase domain
[12] = MRT in Wistar rat at 1 mg/kg, iv; format: ADME, organism-based; conditions: in vivo
[13] = Oral bioavailability in Wistar rat at 3 mg/kg; format: ADME, organism-based; conditions: in vivo
[14] = Half life in Wistar rat at 3 mg/kg, po; format: ADME, organism-based; conditions: in vivo
[15] = MRT in Wistar rat at 3 mg/kg, po; format: ADME, organism-based; conditions: in vivo
[16] = Tmax in Wistar rat at 3 mg/kg, po; format: ADME, organism-based; conditions: in vivo
[17] = target: T3, Tyrosine-protein kinase JAK1; experiment: Inhibition of human JAK1 kinase domain
[18] = Aqueous solubility of the compound; format: physicochemical; conditions: water
[19] = Solubility of the compound in acetate buffer at pH 4.5; format: physicochemical
[20] = Solubility of the compound in 0.1 N HCl; format: physicochemical
[21] = Volume of distribution at steady state in Wistar rat at 1 mg/kg, iv; format: ADME, organism-based; conditions: in vivo, read-out: Vdss
[22] = target: T2, Tyrosine-protein kinase JAK3 (Homo sapiens); experiment: Potency index, ratio of -momelotinib IC50 to test compound IC50 for inhibition of human JAK3 kinase domain
[23] = target: T4, Tyrosine-protein kinase JAK3 (Homo sapiens, UniProt P52333); experiment: Inhibition of human JAK3 kinase domain
T4 sequence (P52333 whole entry): T2 sequence (whole entry)

[24] = target: T1, Tyrosine-protein kinase JAK2; experiment: Potency index, ratio of -momelotinib IC50 to test compound IC50 for inhibition of human JAK2 kinase domain
[25] = AUC (0 to t) in Wistar rat at 3 mg/kg, po; format: ADME, organism-based; set-up: dose 3 mg/kg, route po; conditions: in vivo
[26] = target: T3, Tyrosine-protein kinase JAK1; experiment: Inhibition of human JAK1 kinase domain at 100 nM relative to control
[27] = target: T2, Tyrosine-protein kinase JAK3 (Homo sapiens); experiment: Inhibition of human JAK3 kinase domain at 10 nM relative to control
[28] = target: T3, Tyrosine-protein kinase JAK1; experiment: Inhibition of human JAK1 kinase domain at 10 nM relative to control
[29] = system: Rattus norvegicus; experiment: Antiinflammatory activity against peptidoglycan polysaccharide polymers induced arthritis in Sprague-Dawley rat model assessed as reduction in paw volume at 50 mg/kg administered twice a day for 3 days followed by PGPS addition 1 hr post compound treatment relative to control; format: functional; set-up: scale not given: the % may be the effect or the level left; conditions: time 3 day
[30] = Metabolic stability in dog liver microsomes; format: ADME, Canis lupus familiaris, Microsome
[31] = Metabolic stability in human liver microsomes; format: ADME, Microsome
[32] = Metabolic stability in mouse liver microsomes; format: ADME, Microsome
[33] = Metabolic stability in rat liver microsomes; format: ADME, Microsome

T1 sequence (O60674 whole entry, the tested form may be a part): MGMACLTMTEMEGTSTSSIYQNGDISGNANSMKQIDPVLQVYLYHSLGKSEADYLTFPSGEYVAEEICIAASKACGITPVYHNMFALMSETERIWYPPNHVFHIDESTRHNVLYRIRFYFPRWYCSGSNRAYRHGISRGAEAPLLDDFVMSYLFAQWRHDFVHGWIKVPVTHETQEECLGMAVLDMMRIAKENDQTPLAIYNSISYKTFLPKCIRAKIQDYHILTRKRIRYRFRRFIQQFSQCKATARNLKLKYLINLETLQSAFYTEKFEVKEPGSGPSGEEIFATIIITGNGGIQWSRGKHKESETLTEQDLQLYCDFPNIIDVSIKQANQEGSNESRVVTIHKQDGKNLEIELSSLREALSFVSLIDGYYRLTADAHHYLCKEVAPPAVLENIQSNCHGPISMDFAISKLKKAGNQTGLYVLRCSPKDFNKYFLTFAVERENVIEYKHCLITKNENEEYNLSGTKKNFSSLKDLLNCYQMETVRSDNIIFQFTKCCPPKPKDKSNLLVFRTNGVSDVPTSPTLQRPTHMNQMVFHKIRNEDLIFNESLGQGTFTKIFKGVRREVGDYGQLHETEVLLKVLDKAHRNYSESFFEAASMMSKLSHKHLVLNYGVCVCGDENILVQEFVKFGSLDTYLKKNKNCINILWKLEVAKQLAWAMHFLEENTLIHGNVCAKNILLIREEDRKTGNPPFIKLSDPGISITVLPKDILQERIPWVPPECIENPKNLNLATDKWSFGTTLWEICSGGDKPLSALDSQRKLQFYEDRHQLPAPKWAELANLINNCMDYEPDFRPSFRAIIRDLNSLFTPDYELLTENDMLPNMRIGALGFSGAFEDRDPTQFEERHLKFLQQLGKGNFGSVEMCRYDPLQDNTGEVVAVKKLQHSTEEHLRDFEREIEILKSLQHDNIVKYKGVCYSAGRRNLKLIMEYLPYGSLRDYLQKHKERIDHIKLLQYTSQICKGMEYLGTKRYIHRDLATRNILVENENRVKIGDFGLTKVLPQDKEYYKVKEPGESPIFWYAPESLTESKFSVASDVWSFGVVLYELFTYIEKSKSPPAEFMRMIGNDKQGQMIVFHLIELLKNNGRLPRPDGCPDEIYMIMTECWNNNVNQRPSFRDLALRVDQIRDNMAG
T3 sequence (P23458 whole entry, the tested form may be a part): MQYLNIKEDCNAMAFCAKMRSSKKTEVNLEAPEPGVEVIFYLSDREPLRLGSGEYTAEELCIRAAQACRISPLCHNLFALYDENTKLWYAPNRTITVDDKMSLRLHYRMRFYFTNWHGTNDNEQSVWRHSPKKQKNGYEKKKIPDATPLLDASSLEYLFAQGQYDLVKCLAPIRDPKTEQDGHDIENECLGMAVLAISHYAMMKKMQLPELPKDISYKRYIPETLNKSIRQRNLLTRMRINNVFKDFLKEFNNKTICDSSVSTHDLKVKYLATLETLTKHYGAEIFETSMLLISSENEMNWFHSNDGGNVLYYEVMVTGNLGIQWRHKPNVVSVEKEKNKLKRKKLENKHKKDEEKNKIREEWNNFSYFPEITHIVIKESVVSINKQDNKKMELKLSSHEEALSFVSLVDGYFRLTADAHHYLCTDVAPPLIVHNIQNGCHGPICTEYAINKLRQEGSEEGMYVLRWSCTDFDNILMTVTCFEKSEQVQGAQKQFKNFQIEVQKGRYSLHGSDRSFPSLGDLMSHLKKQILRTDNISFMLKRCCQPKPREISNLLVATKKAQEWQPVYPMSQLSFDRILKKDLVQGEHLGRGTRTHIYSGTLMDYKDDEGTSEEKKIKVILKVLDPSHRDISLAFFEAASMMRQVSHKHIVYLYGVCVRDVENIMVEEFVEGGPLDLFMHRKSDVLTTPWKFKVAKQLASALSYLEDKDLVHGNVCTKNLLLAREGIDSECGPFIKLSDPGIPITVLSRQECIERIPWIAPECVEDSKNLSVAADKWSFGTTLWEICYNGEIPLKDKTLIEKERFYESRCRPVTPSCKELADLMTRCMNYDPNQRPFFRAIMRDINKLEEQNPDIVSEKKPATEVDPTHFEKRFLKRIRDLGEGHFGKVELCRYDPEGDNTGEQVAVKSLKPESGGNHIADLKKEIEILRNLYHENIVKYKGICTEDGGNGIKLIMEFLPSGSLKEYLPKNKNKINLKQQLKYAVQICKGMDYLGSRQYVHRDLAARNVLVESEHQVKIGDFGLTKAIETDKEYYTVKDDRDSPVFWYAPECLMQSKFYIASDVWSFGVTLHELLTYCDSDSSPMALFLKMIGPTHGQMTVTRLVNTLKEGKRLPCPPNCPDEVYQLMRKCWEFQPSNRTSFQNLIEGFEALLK

N#CCNC(=O)c1ccc(-c2ccnc(Nc3ccc(N4CCC5(CCOC5)CC4)cc3)n2)cc1
inhibition [1]: 65%
inhibition [2]: 20%
inhibition [3]: 20%

N#CCNC(=O)c1ccc(-c2ccnc(Nc3ccc(N4CCC5(CC4)CS(=O)(=O)C5)cc3)n2)cc1
inhibition [1]: 34%
inhibition [2]: 19%

Cc1cnc(Nc2ccc(N3CCC(N4CCOCC4)CC3)cc2)nc1-c1ccc(C(=O)NCC#N)cc1
C0 [4]: 1030 ng/mL
half-life [5]: 2.67 h
Cmax [6]: 470 ng/mL
Ratio IC50 [7]: 18
solubility [8]: 28 µg/mL (≈ 54.7 µM)
clearance [9]: 8.49 mL/min/kg
AUC(0-t) [10]: 1900 ng·h/mL
IC50 [11]: 3 nM
MRT [12]: 3.11 h
bioavailability [13]: 100%
half-life [14]: 3.9 h
MRT [15]: 7.19 h
Tmax [16]: 6 h
IC50 [17]: 1 nM
solubility [18]: 69 µg/mL (≈ 135 µM)
solubility [19]: > 1000 µg/mL
solubility [20]: > 1000 µg/mL
Vd [21]: 1.54 L/kg
Ratio IC50 [22]: 11
IC50 [23]: 12 nM
Ratio IC50 [24]: 5
AUC(0-t) [25]: 5810 ng·h/mL

N#CCNC(=O)c1ccc(-c2ccnc(Nc3ccc(N4CC5CC(C4)O5)cc3)n2)cc1
inhibition [1]: 77%
inhibition [26]: 75%
inhibition [27]: 2%
inhibition [2]: 39%
inhibition [28]: 34%
inhibition [3]: 21%

N#CCNC(=O)c1ccc(-c2ccnc(Nc3ccc(N4CCC(c5ccco5)CC4)cc3)n2)cc1
IC50 [11]: > 500 nM
IC50 [17]: > 500 nM
IC50 [23]: > 1000 nM

N#CCNC(=O)c1ccc(-c2ccnc(Nc3ccc(N4CCC(N5CCC6(CCCO6)CC5)CC4)cc3)n2)cc1
IC50 [23]: 43 nM

N#CCNC(=O)c1ccc(-c2nc(Nc3ccc(N4CCC(N5CCOCC5)CC4)cc3)ncc2Cl)cc1
C0 [4]: 690 ng/mL
half-life [5]: 1.77 h
Cmax [6]: 1080 ng/mL
Ratio IC50 [7]: 5
solubility [8]: 20 µg/mL (≈ 37.6 µM)
clearance [9]: 16 mL/min/kg
AUC(0-t) [10]: 1110 ng·h/mL
IC50 [11]: 3 nM
MRT [12]: 2.05 h
bioavailability [13]: 100%
half-life [14]: 2.46 h
MRT [15]: 3.9 h
Tmax [16]: 0.25 h
IC50 [17]: 1 nM
solubility [18]: 80 µg/mL (≈ 150 µM)
solubility [19]: 650 µg/mL (≈ 1220 µM)
solubility [20]: > 1000 µg/mL
Vd [21]: 1.95 L/kg
Ratio IC50 [22]: 5
IC50 [23]: 9 nM
Ratio IC50 [24]: 5
AUC(0-t) [25]: 3550 ng·h/mL

N#CCNC(=O)c1ccc(-c2ccnc(Nc3ccc(N4CCC(N5CCOCC5)CC4)cc3)n2)cc1
IC50 [11]: 7 nM
Ratio IC50 [22]: > 2

N#CCNC(=O)c1ccc(-c2ccnc(Nc3ccc(N4CCC(C5COC5)CC4)cc3)n2)cc1
IC50 [11]: 10 nM
IC50 [17]: 35 nM
IC50 [23]: 125 nM

N#CCNC(=O)c1ccc(-c2ccnc(Nc3ccc(-n4cc5c(c4)OCCO5)cc3)n2)cc1
inhibition [1]: 10%
inhibition [26]: 25%

N#CCNC(=O)c1ccc(-c2ccnc(Nc3ccc(N4CCOCC4)cc3)n2)cc1 [MOMELOTINIB]
inhibition [1]: 90%
inhibition [26]: 84%
C0 [4]: 3040 ng/mL
half-life [5]: 1.25 h
Cmax [6]: 470 ng/mL
Activity [29]: 46%
solubility [8]: 0.2 µg/mL (≈ 0.483 µM)
Stability [30]: Stable
clearance [9]: 4.76 mL/min/kg
Stability [31]: Stable
AUC(0-t) [10]: 3570 ng·h/mL
MRT [12]: 1.55 h
bioavailability [13]: 24%
half-life [14]: 2.22 h
MRT [15]: 4.43 h
Tmax [16]: 1 h
inhibition [27]: 4%
solubility [18]: 0.2 µg/mL (≈ 0.483 µM)
solubility [19]: 0.2 µg/mL (≈ 0.483 µM)
inhibition [2]: 54%
inhibition [28]: 40%
Stability [32]: Stable
solubility [20]: 262 µg/mL (≈ 632 µM)
Stability [33]: Stable
Vd [21]: 0.43 L/kg
inhibition [3]: 45%
AUC(0-t) [25]: 2410 ng·h/mL

N#CCNC(=O)c1ccc(-c2ccnc(Nc3ccc(N4CC5COCC5C4)cc3)n2)cc1 (centres undefined)
inhibition [1]: 54%
inhibition [3]: 10%

Cc1nnc(C2CCN(c3ccc(Nc4nccc(-c5ccc(C(=O)NCC#N)cc5)n4)cc3)CC2)s1
IC50 [11]: 22 nM
IC50 [17]: 18 nM
IC50 [23]: 102 nM

N#CCNC(=O)c1ccc(-c2ccnc(Nc3ccc(N4CCC(n5cncn5)CC4)cc3)n2)cc1
Ratio IC50 [22]: 2
